Results published in patent US20160115540A1, “PRODRUGS AND DRUGS” (Biogen MA Inc., priority 2013, published 2016).
Where a name gives a salt, the structure may show the parent alone.

System: kidney
Assay: Transcriptional profiling on Affymetrix GeneChips, single dose, naïve mice: kidney
Assay type: in vivo, C57BL/6 mice
Conditions: 100 DMF-vs-Veh, 2 h
Experimental: Treated mice were sacrificed at 2, 7, or 12 hours. Tissues (liver, spleen, kidney, jejunum, cortex, hippocampus, striatum and whole blood) were collected and analyzed by transcriptional profiling on mouse Affymetrix GeneChips.
Tissues (liver, spleen, kidney, jejunum, cortex, hippocampus, striatum and whole blood) were collected and analyzed by transcriptional profiling on mouse Affymetrix GeneChips.
Animals were exposed to CO2 and whole blood collected via cardiac puncture. Two 100 μl aliquots of whole blood were collected in 1.5 mL microcentrifuge tubes and snap frozen in liquid nitrogen. Peripheral (liver, spleen, kidney and jejunum) and CNS brain (cerebellum, hippocampus, striatum and cortex) tissues were harvested and snap frozen in liquid nitrogen, with special care taken to collect tissues of similar size and from the same location. All samples were stored at −80° C. until RNA extraction was conducted.
For RNA preparation, frozen tissues were placed in 2 mL RNAse-free 96-well blocks with 1.5 mL QIAzol Lysis Reagent (QIAgen) and a 3.2 mm stainless steel bead (BioSpec Products, Bartlesville, Okla.). Tissues were disrupted for four cycles of 45 seconds in a Mini-Beadbeater (Biospec Products). RNA was extracted in chloroform and the aqueous phase was mixed with an equal volume of 70% ethanol. Extracted RNA was applied to RNeasy 96 plates and purified by the spin method according to the manufacturer's protocol (RNeasy 96 Universal Tissue Protocol, QIAgen, Hilden Germany).
Automated sample amplifications and biotin labelings were carried out using the NuGEN Ovation RNA Amplification system V2 (Cat #3100), Ovation WB reagent (Cat #1300) and Encore Biotin module (Cat #4200) (NuGEN Technologies, Inc, San Carlos, Calif.) according to manufacturer's recommendations using an Arrayplex automated liquid handler (Beckman Coulter, Indianapolis, Ind.). Two micrograms of biotin labeled sscDNA probe were hybridized to Affymetrix GeneChip Affymetrix HT_MG-430_PM plate arrays with modified conditions as described in Allaire et al. Washing and staining of the hybridized arrays were completed as described in the GeneChip Expression analysis technical manual for HT plate arrays using the Genechip® Array Station (Affymetrix, Santa Clara, Calif.) with modifications as described in Allaire et al. The processed GeneChip® plate arrays were scanned using GeneTitan scanner (Affymetrix, Santa Clara, Calif.).
Affymetrix scans were subject to quality control (QC) measures. These tests included a visual inspection of the distribution of raw signal intensities and an assessment of RNA degradation, relative log expression (RLE), and normalized unsealed standard error (NUSE). All sample scans that passed these QC metrics were included in the analysis.
All CEL files were subjected to GC-content-based Robust Multi-array Average (GCRMA) normalization (version 2.20.0) (Irizarry R A, et al. Nucleic Acids Res 2003; 31:e15; Li C, et al. Genome Biol 2001; 2:[…]0032). Expression levels were log (base 2) transformed.
All calculations and analyses were carried out using R (version 2.11.1) and Bioconductor computational tools (Gentleman R. Springer Science+Business Media 2005).

Structure (SMILES): COC(=O)/C=C/C(=O)OC [DMF, dimethyl fumarate]
- FC Arpc5l 1441190_PM_at: 1.70
- FC Asns 1433966_PM_x_at: 2.54
- FC Asns 1451095_PM_at: 3.03
- FC Atf4 1438992_PM_x_at: 1.77
- FC Atf4 1448135_PM_at: 2.12
- FC Atp1a2 1452308_PM_a_at: 1.84
- FC BC005512 /// F630007L15Rik /// Gm6958 1426936_PM_at: −1.67
- FC BC005512 /// F630007L15Rik /// Gm6958 1435628_PM_x_at: −1.72
- FC BC026585 1445857_PM_at: −1.51
- FC BC031353 1439293_PM_at: −1.84
- FC Bach1 1440831_PM_at: 1.90
- FC Bach1 1449311_PM_at: 2.55
- FC Bag3 1422452_PM_at: 2.03
- FC Baiap2 1425656_PM_a_at: 1.51
- FC Baz1a 1433599_PM_at: 2.51
- FC Baz1a /// LOC100505185 1447930_PM_at: 2.56
- FC Bcl11b 1438784_PM_at: −1.52
- FC Brd2 1423502_PM_at: 1.83
- FC Brd2 1437210_PM_a_at: 2.07
- FC Btbd10 1438578_PM_a_at: 1.60
- FC C730027H18Rik 1442546_PM_at: −1.57
- FC Cars 1452394_PM_at: 1.63
- FC Cbr3 (1427912_PM_at): 3.04
- FC Ccdc30 1430593_PM_at: −2.01
- FC Ccdc117 1452218_PM_at: 1.54
- FC Cenpe 1435005_PM_at: −2.20
- FC Chac1 1451382_PM_at: 31.00
- FC Chd1 1420990_PM_at: 1.76
- FC Chd1 1450077_PM_at: 1.67
- FC Cltc 1439094_PM_at: 2.07
- FC Cyp27b1 1427372_PM_at: −3.22
- FC Cyr61 1438133_PM_a_at: 2.64
- FC D16Ertd778e 1445089_PM_at: −2.60
- FC Dcbld1 1418966_PM_a_at: 1.78
- FC Ddit3 1443897_PM_at: 3.97
- FC Dnaja4 1434196_PM_at: 1.63
- FC Dnajb4 1431734_PM_a_at: 2.15
- FC Dnajb4 1451177_PM_at: 2.48
- FC Dusp4 1428834_PM_at: 2.09
- FC Dusp5 1437199_PM_at: 3.68
- FC E130306D19Rik 1436725_PM_at: −1.64
- FC Eid3 1429350_PM_at: 1.84
- FC Eif2c3 1435904_PM_at: 1.53
- FC Esd (1441604_PM_at): 1.62
- FC Fam126a 1450724_PM_at: 1.70
- FC Fbxo30 1436550_PM_at: 1.81
- FC Fgd3 1433398_PM_at: 1.66
- FC Fgf1 1441042_PM_at: −2.91
- FC Fgfbp1 1419086_PM_at: 1.81
- FC Fn3k 1442436_PM_at: −1.60
- FC Fras1 1440765_PM_at: −1.73
- FC Gadd45a 1449519_PM_at: 1.75
- FC Gclc (1424296_PM_at): 1.70
- FC Gdap10 1420342_PM_at: 1.52
- FC Gdf15 1418949_PM_at: 5.39
- FC Gm10374 1436357_PM_at: −1.52
- FC Gm10804 1441759_PM_at: −1.67
- FC Gsta3 (1423437_PM_at): 2.01
- FC Gt(ROSA)26Sor 1452239_PM_at: 1.62
- FC Hectd2 1433944_PM_at: 1.67
- FC Hinfp 1440255_PM_at: 1.57
- FC Hk2 1422612_PM_at: 2.72
- FC Hmox1 1448239_PM_at: 6.27
- FC Hnf1b 1421224_PM_a_at: −1.77
- FC Hnf1b 1451687_PM_a_at: −1.82
- FC Hsp90aa1 1426645_PM_at: 1.64
- FC Hsp90aa1 1437497_PM_a_at: 1.55
- FC Hspa1a 1452388_PM_at: 2.35
- FC Hspa1b 1427126_PM_at: 3.65
- FC Hspa1b 1427127_PM_x_at: 3.37
- FC Hspa1b 1452318_PM_a_at: 1.70
- FC Hspa4l 1439093_PM_at: 1.67
- FC Hspa8 /// LOC624853 1431182_PM_at: 2.63
- FC Hsph1 1423566_PM_a_at: 2.40
- FC Igf1r 1446303_PM_at: −1.66
- FC Jmjd6 1420056_PM_s_at: 1.52
- FC Jmjd6 1420057_PM_at: 1.54
- FC Jun 1448694_PM_at: 1.50
